# What was measured:
# Digitaria ciliaris [1] = experiment: Weed foliar treatment test; assay type: in vivo; conditions: foliar spray at 1.0 to 2.0 leaf stage of Digitaria ciliaris, 3 weeks
# Procedure: (§1) Soil was filled into a 1/6000 are pot followed by seeding with Digitaria ciliaris, Chenopodium album and Amaranthus retroflexus, covering with soil, and cultivating in a glass greenhouse at an average atmospheric temperature of 25° C.
# (§2) Wettable powder of Target Compound (I) shown in Table 1 prepared in compliance with the preparation examples were diluted with water to the prescribed amount of chemical and uniformly sprayed onto the weeds using 15 liters of sprayed water per are when Digitaria ciliaris had grown to the 1.0 to 2.0 leaf stage.
# (§3) After treating for 3 weeks in a glass greenhouse at an average atmospheric temperature of 25° C., the herbicidal efficacy thereof was investigated.
# (§4) Evaluation of herbicidal efficacy was carried out in the same manner as the above-mentioned Test Example 1.
# Amaranthus retroflexus [2] = experiment: Weed foliar treatment test; assay type: in vivo; conditions: foliar spray, 3 weeks
# Procedure: as §1, §2, §3, §4
# Chenopodium album [3] = experiment: Weed foliar treatment test; assay type: in vivo; conditions: foliar spray, 3 weeks
# Procedure: as §1, §2, §3, §4
# Digitaria ciliaris [4] = experiment: Farming soil treatment test; assay type: in vivo; conditions: soil surface spray prior to weed growth, 30 days
# Procedure: (§5) Field soil was filled into a 1/6000 are pot followed by seeding with Digitaria ciliaris, Chenopodium album and Amaranthus retroflexus and covering with soil.
# (§6) Wettable powder of Target Compound (I) shown in Table 1 prepared in compliance with the preparation examples were diluted with water to the prescribed amount of chemical and uniformly sprayed onto each soil surface layer using 10 liters of sprayed water per are prior to weed growth following seeding.
# (§7) After treating for 30 days in a glass greenhouse at an average atmospheric temperature of 30° C., the herbicidal efficacy thereof was investigated.
# as §4
# Amaranthus retroflexus [5] = experiment: Farming soil treatment test; assay type: in vivo; conditions: soil surface spray prior to weed growth, 30 days
# Procedure: as §5, §6, §7, §4
# Chenopodium album [6] = experiment: Farming soil treatment test; assay type: in vivo; conditions: soil surface spray prior to weed growth, 30 days
# Procedure: as §5, §6, §7, §4
# Rice plants = experiment: Paddy herbicidal activity test, phytotoxicity to transplanted rice; assay type: in vivo; conditions: rice transplanted at 2.0 leaf stage, 30 days
# Procedure: (§8) Rice paddy soil was filled into a 1/10000 are pot followed by the addition of suitable amounts of water and chemical fertilizer, kneading, seeding with Echinochloa crus-galli, Monochoria vaginalis and Scirpus juncoides and maintaining in an irrigated state at a water depth of 3 cm.
# (§9) Wettable powder of Target Compound (I) shown in Table 1 prepared in compliance with the preparation examples were diluted with a suitable amount of water, rice plants in the 2.0 leaf stage were transplanted during 3.5 leaf stage of Echinochloa crus-galli, and treated by dropping in chemical in the prescribed amount per are using a pipette.
# as §7
# (§10) Evaluation of herbicidal efficacy was carried out by comparing growth inhibition rate (%) with an untreated group, while evaluation of phytotoxicity was carried out by comparing growth inhibition rate (%) with the state of a complete eradication group, and were evaluated at 11 levels indicated below.
# Echinochloa crus-galli = experiment: Paddy herbicidal activity test; assay type: in vivo; conditions: irrigated paddy pot, treated at 3.5 leaf stage of Echinochloa crus-galli, 30 days
# Procedure: as §8, §9, §7, §10
# Monochoria vaginalis = experiment: Paddy herbicidal activity test; assay type: in vivo; conditions: irrigated paddy pot, 30 days
# Procedure: as §8, §9, §7, §10
# Scirpus juncoides = experiment: Paddy herbicidal activity test; assay type: in vivo; conditions: irrigated paddy pot, 30 days
# Procedure: as §8, §9, §7, §10
Compound,herbicidal efficacy (growth inhibition level) Digitaria ciliaris (Digitaria ciliaris [1]; 5 g a.i./10 a),herbicidal efficacy (growth inhibition level) Digitaria ciliaris (Digitaria ciliaris [1]; 10 g a.i./10 a),herbicidal efficacy (growth inhibition level) Amaranthus retroflexus (Amaranthus retroflexus [2]; 5 g a.i./10 a),herbicidal efficacy (growth inhibition level) Amaranthus retroflexus (Amaranthus retroflexus [2]; 10 g a.i./10 a),herbicidal efficacy (growth inhibition level) Chenopodium album (Chenopodium album [3]; 5 g a.i./10 a),herbicidal efficacy (growth inhibition level) Chenopodium album (Chenopodium album [3]; 10 g a.i./10 a),herbicidal efficacy (growth inhibition level) Digitaria ciliaris (Digitaria ciliaris [4]; 5 g a.i./10 a),herbicidal efficacy (growth inhibition level) Digitaria ciliaris (Digitaria ciliaris [4]; 10 g a.i./10 a),herbicidal efficacy (growth inhibition level) Amaranthus retroflexus (Amaranthus retroflexus [5]; 5 g a.i./10 a),herbicidal efficacy (growth inhibition level) Amaranthus retroflexus (Amaranthus retroflexus [5]; 10 g a.i./10 a),herbicidal efficacy (growth inhibition level) Chenopodium album (Chenopodium album [6]; 5 g a.i./10 a),herbicidal efficacy (growth inhibition level) Chenopodium album (Chenopodium album [6]; 10 g a.i./10 a),phytotoxicity (growth inhibition level) Rice plants (Rice plants; 1 g a.i./10 a),phytotoxicity (growth inhibition level) Rice plants (Rice plants; 5 g a.i./10 a),herbicidal efficacy (growth inhibition level) Echinochloa crus-galli (Echinochloa crus-galli; 1 g a.i./10 a),herbicidal efficacy (growth inhibition level) Echinochloa crus-galli (Echinochloa crus-galli; 5 g a.i./10 a),herbicidal efficacy (growth inhibition level) Monochoria vaginalis (Monochoria vaginalis; 1 g a.i./10 a),herbicidal efficacy (growth inhibition level) Monochoria vaginalis (Monochoria vaginalis; 5 g a.i./10 a),herbicidal efficacy (growth inhibition level) Scirpus juncoides (Scirpus juncoides; 1 g a.i./10 a),herbicidal efficacy (growth inhibition level) Scirpus juncoides (Scirpus juncoides; 5 g a.i./10 a),other results
"C#CCNc1c(C#N)cnn1-c1nn2c(c1Cl)CCCC2 [4.85, 4.156]",3 (3: 30% to less than 40%),5 (5: 50% to less than 60%),4 (4: 40% to less than 50%),6 (6: 60% to less than 70%),5 (5: 50% to less than 60%),6 (6: 60% to less than 70%),3 (3: 30% to less than 40%),4 (4: 40% to less than 50%),3 (3: 30% to less than 40%),6 (6: 60% to less than 70%),4 (4: 40% to less than 50%),5 (5: 50% to less than 60%),2 (2: 20% to less than 30%),2 (2: 20% to less than 30%),2 (2: 20% to less than 30%),3 (3: 30% to less than 40%),1 (1: 10% to less than 20%),3 (3: 30% to less than 40%),0 (0 (exponent): 0% to less than 10% (growth inhibition rate)),1 (1: 10% to less than 20%),
"CC#CCNc1c(C#N)cnn1-c1nn2c(c1Cl)CCCC2 [4.131, 4.132]",3 (3: 30% to less than 40%),4 (4: 40% to less than 50%),4 (4: 40% to less than 50%),6 (6: 60% to less than 70%),4 (4: 40% to less than 50%),5 (5: 50% to less than 60%),3 (3: 30% to less than 40%),4 (4: 40% to less than 50%),4 (4: 40% to less than 50%),5 (5: 50% to less than 60%),3 (3: 30% to less than 40%),4 (4: 40% to less than 50%),1 (1: 10% to less than 20%),1 (1: 10% to less than 20%),3 (3: 30% to less than 40%),4 (4: 40% to less than 50%),0 (0 (exponent): 0% to less than 10% (growth inhibition rate)),1 (1: 10% to less than 20%),1 (1: 10% to less than 20%),3 (3: 30% to less than 40%),
"C#CCCNc1c(C#N)cnn1-c1nn2c(c1Cl)CCCC2 [Compound 1, 1-(3-chloro-4,5,6,7-tetrahydropyrazolo[1,5-a]pyridin-2-yl)-5-(but-3-ynylamino)pyrazole-4-carbonitrile]",10 (10: 100%),10 (10: 100%),10 (10: 100%),10 (10: 100%),10 (10: 100%),10 (10: 100%),10 (10: 100%),10 (10: 100%),10 (10: 100%),10 (10: 100%),10 (10: 100%),10 (10: 100%),0 (0 (exponent): 0% to less than 10% (growth inhibition rate)),1 (1: 10% to less than 20%),9 (9: 90% to less than 100%),10 (10: 100%),9 (9: 90% to less than 100%),10 (10: 100%),8 (8: 80% to less than 90%),10 (10: 100%),melting point: 130 to 131 °C
"C#CCN(C)c1c(C#N)cnn1-c1nn2c(c1Cl)CCCC2 [Compound 4.73, 1-(3-chloro-4,5,6,7-tetrahydropyrazolo[1,5-a]pyridin-2-yl)-5-[methyl(prop-2-ynyl)amino]pyrazole-4-carbonitrile]",1 (1: 10% to less than 20%),2 (2: 20% to less than 30%),3 (3: 30% to less than 40%),3 (3: 30% to less than 40%),2 (2: 20% to less than 30%),3 (3: 30% to less than 40%),0 (0 (exponent): 0% to less than 10% (growth inhibition rate)),1 (1: 10% to less than 20%),1 (1: 10% to less than 20%),2 (2: 20% to less than 30%),1 (1: 10% to less than 20%),2 (2: 20% to less than 30%),0 (0 (exponent): 0% to less than 10% (growth inhibition rate)),1 (1: 10% to less than 20%),2 (2: 20% to less than 30%),4 (4: 40% to less than 50%),3 (3: 30% to less than 40%),4 (4: 40% to less than 50%),0 (0 (exponent): 0% to less than 10% (growth inhibition rate)),1 (1: 10% to less than 20%),
